Legend:
[1] = target: Ephrin type-A receptor 7 (Homo sapiens) (UniProt Q15375); conditions: Compound concentration 1000.0 nM
[2] = target: Myosin light chain kinase 2, skeletal/cardiac muscle (Homo sapiens) (UniProt Q9H1R3); conditions: Compound concentration 1000.0 nM
[3] = target: Tyrosine-protein kinase JAK1 (Homo sapiens) (UniProt P23458); conditions: Compound concentration 1000.0 nM
[4] = target: Wee1-like protein kinase 2 (Homo sapiens) (UniProt P0C1S8); conditions: Compound concentration 1000.0 nM
Chain of Wee1-like protein kinase 2 (Homo sapiens) (P0C1S8 whole entry, looked up): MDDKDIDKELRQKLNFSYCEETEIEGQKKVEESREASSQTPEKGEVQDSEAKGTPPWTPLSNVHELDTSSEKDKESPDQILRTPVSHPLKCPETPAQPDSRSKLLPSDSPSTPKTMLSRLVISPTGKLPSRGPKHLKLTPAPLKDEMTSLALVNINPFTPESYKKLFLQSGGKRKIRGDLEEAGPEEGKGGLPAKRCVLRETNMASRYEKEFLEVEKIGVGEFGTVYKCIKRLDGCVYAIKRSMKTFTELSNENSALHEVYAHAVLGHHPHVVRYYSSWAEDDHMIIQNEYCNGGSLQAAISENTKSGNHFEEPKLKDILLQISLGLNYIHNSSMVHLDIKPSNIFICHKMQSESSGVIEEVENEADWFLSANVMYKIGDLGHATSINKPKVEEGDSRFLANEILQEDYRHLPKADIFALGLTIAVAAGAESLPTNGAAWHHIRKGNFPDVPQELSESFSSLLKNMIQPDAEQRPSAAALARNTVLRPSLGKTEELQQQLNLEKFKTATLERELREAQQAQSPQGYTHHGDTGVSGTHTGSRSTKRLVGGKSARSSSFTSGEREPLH

[5] = tested on: Fibroblast growth factor receptor 3 (Homo sapiens), P22607 [G697C]; conditions: Compound concentration 1000.0 nM
Chain of Fibroblast growth factor receptor 3 (Homo sapiens), P22607 [G697C] (P22607 whole entry G697C): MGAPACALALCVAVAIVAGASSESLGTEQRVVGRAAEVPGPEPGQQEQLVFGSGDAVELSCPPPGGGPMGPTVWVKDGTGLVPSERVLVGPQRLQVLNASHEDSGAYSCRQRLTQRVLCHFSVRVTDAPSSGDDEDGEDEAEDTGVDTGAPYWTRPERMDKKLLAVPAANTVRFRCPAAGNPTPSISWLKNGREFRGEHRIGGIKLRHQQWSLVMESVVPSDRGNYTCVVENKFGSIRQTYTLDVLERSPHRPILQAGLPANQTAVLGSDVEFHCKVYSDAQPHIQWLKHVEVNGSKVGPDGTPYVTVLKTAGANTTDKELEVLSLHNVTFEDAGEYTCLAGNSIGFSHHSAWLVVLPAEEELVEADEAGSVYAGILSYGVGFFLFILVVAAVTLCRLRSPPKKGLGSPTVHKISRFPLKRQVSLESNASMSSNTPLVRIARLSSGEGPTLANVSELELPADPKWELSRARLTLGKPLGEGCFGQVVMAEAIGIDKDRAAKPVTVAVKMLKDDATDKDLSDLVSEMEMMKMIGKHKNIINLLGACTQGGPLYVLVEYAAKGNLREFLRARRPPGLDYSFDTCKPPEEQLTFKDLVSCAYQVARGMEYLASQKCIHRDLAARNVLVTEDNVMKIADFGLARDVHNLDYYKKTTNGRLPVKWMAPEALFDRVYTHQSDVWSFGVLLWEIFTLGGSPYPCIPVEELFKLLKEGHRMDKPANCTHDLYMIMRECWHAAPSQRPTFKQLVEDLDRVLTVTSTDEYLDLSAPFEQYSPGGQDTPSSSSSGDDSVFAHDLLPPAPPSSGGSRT

[6] = target: Serine/threonine-protein kinase OSR1 (Homo sapiens) (UniProt O95747); conditions: Compound concentration 1000.0 nM
Chain of Serine/threonine-protein kinase OSR1 (Homo sapiens) (O95747 2-527 limits assumed): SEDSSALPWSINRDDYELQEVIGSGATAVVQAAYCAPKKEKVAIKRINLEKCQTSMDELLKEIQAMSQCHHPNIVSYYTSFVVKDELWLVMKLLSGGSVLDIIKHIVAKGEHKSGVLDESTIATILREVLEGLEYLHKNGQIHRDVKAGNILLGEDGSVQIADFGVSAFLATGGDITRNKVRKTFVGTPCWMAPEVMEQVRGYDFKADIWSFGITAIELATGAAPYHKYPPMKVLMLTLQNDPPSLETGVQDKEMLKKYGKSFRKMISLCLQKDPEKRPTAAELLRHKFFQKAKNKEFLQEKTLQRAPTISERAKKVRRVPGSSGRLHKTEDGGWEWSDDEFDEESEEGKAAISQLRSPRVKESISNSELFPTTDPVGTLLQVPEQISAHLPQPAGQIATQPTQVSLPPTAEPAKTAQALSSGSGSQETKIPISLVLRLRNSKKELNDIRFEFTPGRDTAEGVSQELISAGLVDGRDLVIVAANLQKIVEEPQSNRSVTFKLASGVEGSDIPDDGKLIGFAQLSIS

[7] = target: Proto-oncogene tyrosine-protein kinase Src (Homo sapiens) (UniProt P12931); conditions: Compound concentration 1000.0 nM
[8] = target: Beta-3 adrenergic receptor (Homo sapiens, UniProt P13945); conditions: Compound concentration 10.0 uM
Chain of Beta-3 adrenergic receptor (P13945 whole entry, looked up): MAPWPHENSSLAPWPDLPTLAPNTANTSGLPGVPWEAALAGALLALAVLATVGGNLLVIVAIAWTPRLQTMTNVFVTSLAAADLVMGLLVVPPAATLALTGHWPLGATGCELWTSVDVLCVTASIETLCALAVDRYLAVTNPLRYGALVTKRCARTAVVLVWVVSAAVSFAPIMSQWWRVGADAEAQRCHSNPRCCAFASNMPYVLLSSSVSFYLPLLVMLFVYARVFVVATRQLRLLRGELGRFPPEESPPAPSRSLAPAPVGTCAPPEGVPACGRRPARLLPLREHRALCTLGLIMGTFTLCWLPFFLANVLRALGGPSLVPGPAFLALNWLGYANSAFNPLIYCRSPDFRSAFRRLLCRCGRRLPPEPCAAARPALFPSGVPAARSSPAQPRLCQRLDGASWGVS

[9] = target: Serine/threonine-protein kinase DCLK2 (Homo sapiens) (UniProt Q8N568); conditions: Compound concentration 1000.0 nM
[10] = target: Ribosomal protein S6 kinase alpha-5 (Homo sapiens) (UniProt O75582); conditions: Compound concentration 1000.0 nM
[11] = target: Cyclin-dependent kinase 7 (Homo sapiens) (UniProt P50613); conditions: Compound concentration 1000.0 nM
Chain of Cyclin-dependent kinase 7 (Homo sapiens) (P50613 whole entry): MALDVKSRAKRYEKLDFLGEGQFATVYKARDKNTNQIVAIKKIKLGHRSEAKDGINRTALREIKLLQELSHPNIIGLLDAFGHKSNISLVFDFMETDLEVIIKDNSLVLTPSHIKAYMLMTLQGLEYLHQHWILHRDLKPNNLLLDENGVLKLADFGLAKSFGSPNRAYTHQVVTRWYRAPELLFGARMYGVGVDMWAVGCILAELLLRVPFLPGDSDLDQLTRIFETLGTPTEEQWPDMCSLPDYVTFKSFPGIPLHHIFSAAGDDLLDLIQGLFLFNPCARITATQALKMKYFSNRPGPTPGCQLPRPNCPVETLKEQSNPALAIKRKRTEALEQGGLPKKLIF

[12] = target: Serine/threonine-protein kinase PLK2 (Homo sapiens) (UniProt Q9NYY3); conditions: Compound concentration 1000.0 nM
Chain of Serine/threonine-protein kinase PLK2 (Homo sapiens) (Q9NYY3 whole entry, looked up): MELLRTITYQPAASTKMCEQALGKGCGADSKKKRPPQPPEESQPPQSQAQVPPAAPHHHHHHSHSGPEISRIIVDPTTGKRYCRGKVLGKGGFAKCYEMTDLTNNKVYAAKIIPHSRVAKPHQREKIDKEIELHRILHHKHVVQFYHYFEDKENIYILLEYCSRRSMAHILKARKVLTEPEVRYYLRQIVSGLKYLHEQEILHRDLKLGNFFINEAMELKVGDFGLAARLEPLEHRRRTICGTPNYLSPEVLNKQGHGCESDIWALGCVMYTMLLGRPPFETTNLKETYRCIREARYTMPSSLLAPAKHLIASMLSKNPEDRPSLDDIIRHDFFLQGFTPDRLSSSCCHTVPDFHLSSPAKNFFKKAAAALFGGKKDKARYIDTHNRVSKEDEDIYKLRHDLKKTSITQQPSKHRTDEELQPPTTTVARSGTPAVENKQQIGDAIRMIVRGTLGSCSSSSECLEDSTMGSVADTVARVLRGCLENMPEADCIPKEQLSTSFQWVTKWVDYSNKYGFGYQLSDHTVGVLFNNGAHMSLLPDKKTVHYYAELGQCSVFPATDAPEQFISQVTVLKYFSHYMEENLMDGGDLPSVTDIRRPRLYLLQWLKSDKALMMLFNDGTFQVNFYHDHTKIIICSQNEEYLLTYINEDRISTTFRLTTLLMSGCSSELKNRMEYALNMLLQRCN

[13] = tested on: Mast/stem cell growth factor receptor Kit (Homo sapiens), P10721 [L576P]; conditions: Compound concentration 1000.0 nM
Chain of Mast/stem cell growth factor receptor Kit (Homo sapiens), P10721 [L576P] (P10721 whole entry L576P): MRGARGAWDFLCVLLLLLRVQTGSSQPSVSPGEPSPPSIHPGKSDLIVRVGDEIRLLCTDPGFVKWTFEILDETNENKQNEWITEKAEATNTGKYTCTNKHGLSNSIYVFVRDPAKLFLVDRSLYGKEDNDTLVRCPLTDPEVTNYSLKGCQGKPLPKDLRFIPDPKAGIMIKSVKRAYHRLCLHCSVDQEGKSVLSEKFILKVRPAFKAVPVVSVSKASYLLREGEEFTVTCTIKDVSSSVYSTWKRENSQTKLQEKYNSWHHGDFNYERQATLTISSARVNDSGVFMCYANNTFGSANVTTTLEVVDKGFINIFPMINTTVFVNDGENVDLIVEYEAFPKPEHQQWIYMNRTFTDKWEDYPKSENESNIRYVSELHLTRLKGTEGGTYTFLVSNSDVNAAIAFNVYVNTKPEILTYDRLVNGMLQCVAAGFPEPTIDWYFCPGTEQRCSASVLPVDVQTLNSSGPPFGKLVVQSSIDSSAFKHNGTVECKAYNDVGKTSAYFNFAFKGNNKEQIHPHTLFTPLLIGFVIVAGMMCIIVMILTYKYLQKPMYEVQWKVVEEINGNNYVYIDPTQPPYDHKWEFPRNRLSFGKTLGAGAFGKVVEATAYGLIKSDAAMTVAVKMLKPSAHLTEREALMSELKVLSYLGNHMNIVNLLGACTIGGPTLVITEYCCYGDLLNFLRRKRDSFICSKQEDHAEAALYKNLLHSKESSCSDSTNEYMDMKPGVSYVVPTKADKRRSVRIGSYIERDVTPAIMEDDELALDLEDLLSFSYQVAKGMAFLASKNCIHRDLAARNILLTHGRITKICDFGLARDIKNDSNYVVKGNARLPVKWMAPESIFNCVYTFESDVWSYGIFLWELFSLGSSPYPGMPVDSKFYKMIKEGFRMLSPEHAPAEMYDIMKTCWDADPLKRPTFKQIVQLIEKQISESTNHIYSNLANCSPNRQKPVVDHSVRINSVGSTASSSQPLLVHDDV

[14] = target: Serine/threonine-protein kinase D3 (Homo sapiens) (UniProt O94806); conditions: Compound concentration 1000.0 nM
[15] = target: Serine/threonine-protein kinase PknB (Mycobacterium tuberculosis) (UniProt P9WI81); conditions: Compound concentration 1000.0 nM
[16] = target: Serine/threonine-protein kinase 32A (Homo sapiens) (UniProt Q8WU08); conditions: Compound concentration 1000.0 nM
[17] = target: Casein kinase II subunit alpha (Homo sapiens) (UniProt P68400); conditions: Compound concentration 1000.0 nM
[18] = target: STE20/SPS1-related proline-alanine-rich protein kinase (Homo sapiens) (UniProt Q9UEW8); conditions: Compound concentration 1000.0 nM
[19] = target: Testis-specific serine/threonine-protein kinase 3 (Homo sapiens) (UniProt Q96PN8); conditions: Compound concentration 1000.0 nM
[20] = target: Histamine H1 receptor (Homo sapiens) (UniProt P35367); conditions: Compound concentration 10.0 uM
[21] = tested on: Epidermal growth factor receptor (Homo sapiens), P00533 [L858R]; conditions: Compound concentration 1000.0 nM
[22] = target: Calcium/calmodulin-dependent protein kinase type IV (Homo sapiens) (UniProt Q16566); conditions: Compound concentration 1000.0 nM
[23] = target: Mitogen-activated protein kinase kinase kinase kinase 4 (Homo sapiens) (UniProt O95819); conditions: Compound concentration 1000.0 nM
[24] = target: Mitogen-activated protein kinase 3 (Homo sapiens) (UniProt P27361); conditions: Compound concentration 1000.0 nM
[25] = target: Phosphatidylinositol 3-kinase C2 domain-containing subunit gamma (Homo sapiens) (UniProt O75747); conditions: Compound concentration 1000.0 nM
[26] = target: Serine/threonine-protein kinase ULK2 (Homo sapiens) (UniProt Q8IYT8); conditions: Compound concentration 1000.0 nM
[27] = target: Dual specificity testis-specific protein kinase 1 (Homo sapiens) (UniProt Q15569); conditions: Compound concentration 1000.0 nM
[28] = tested on: Mast/stem cell growth factor receptor Kit (Homo sapiens), P10721 [D816H]; conditions: Compound concentration 1000.0 nM
[29] = target: Mitogen-activated protein kinase kinase kinase 14 (Homo sapiens) (UniProt Q99558); conditions: Compound concentration 1000.0 nM
[30] = target: Mast/stem cell growth factor receptor Kit (Homo sapiens) (UniProt P10721); conditions: Compound concentration 1000.0 nM
[31] = target: Serine/threonine-protein kinase 38 (Homo sapiens) (UniProt Q15208); conditions: Compound concentration 1000.0 nM
[32] = tested on: ALK tyrosine kinase receptor (Homo sapiens), Q9UM73 [L1196M]; conditions: Compound concentration 1000.0 nM
[33] = target: Ribosomal protein S6 kinase beta-1 (Homo sapiens) (UniProt P23443); conditions: Compound concentration 1000.0 nM
[34] = target: Ephrin type-B receptor 6 (Homo sapiens) (UniProt O15197); conditions: Compound concentration 1000.0 nM
[35] = target: Neuropeptide Y receptor type 2 (Homo sapiens) (UniProt P49146); test: Inhibition of Neuropeptide Y Y2 at 10 µM in the Eurofins-Panlabs radioligand binding assay (Eurofins_assay_257110); conditions: Compound concentration 10.0 uM
[36] = Protein Tyrosine Kinase, pp60 c-SRC Eurofins-Panlabs enzyme assay
[37] = target: Endothelin receptor type B (Homo sapiens) (UniProt P24530); conditions: Compound concentration 10.0 uM
[38] = target: Melanocortin receptor 5 (Homo sapiens) (UniProt P33032); test: Inhibition of Melanocortin MC5 at 10 µM in the Eurofins-Panlabs radioligand binding assay (Eurofins_assay_251400); parameters: ligand concentration 0.035 nM; conditions: Compound concentration 10.0 uM
[39] = target: Neuromedin-K receptor (Homo sapiens) (UniProt P29371); test: Tachykinin NK3 Eurofins-Panlabs radioligand binding assay; parameters: ligand concentration 0.8 nM; conditions: Compound concentration 10.0 uM
[40] = target: Platelet-activating factor receptor (Homo sapiens) (UniProt P25105); test: Inhibition of Platelet Activating Factor (PAF) at 10 µM in the Eurofins-Panlabs radioligand binding assay (Eurofins_assay_265010); conditions: Compound concentration 10.0 uM
[41] = target: Endothelin-1 receptor (Homo sapiens) (UniProt P25101); conditions: Compound concentration 10.0 uM
Homo sapiens = species on record: Homo sapiens; test: Estrogen ERbeta Eurofins-Panlabs radioligand binding assay; conditions: Compound concentration 10.0 uM
[42] = target: Receptor-type tyrosine-protein phosphatase C (Homo sapiens) (UniProt P08575); test: Inhibition of Protein Tyrosine Phosphatase, PTPRC (CD45) at 10 µM in the Eurofins-Panlabs enzyme assay (Eurofins_assay_190010); conditions: Compound concentration 10.0 uM
[43] = target: Alpha-2A adrenergic receptor (Homo sapiens, UniProt P08913); test: Adrenergic alpha2A Eurofins-Panlabs radioligand binding assay; parameters: ligand concentration 1 nM, non-specific ligand with concentration 10 µM WB-4101, incubation time 60 min, incubation temperature 25 °C

Chain of Myosin light chain kinase 2, skeletal/cardiac muscle (Homo sapiens) (Q9H1R3 whole entry): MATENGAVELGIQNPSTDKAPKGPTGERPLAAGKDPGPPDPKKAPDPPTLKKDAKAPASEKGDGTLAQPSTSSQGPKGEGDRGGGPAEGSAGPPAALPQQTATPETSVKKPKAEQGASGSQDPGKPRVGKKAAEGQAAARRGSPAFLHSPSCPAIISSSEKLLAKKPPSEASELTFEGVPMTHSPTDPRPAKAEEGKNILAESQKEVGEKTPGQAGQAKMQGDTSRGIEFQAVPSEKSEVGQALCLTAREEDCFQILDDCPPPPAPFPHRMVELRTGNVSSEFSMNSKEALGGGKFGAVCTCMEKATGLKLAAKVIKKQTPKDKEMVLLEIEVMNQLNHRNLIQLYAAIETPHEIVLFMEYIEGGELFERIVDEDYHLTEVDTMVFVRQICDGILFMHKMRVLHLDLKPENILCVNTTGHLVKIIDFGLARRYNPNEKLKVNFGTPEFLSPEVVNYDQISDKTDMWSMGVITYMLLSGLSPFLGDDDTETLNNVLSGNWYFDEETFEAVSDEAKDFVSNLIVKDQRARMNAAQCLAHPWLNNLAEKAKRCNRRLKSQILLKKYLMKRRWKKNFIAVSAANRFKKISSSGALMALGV

Work on `Cc1c(C(=O)O)cc(-c2ccc(C3CCNCC3)cc2)c2ccc(-c3ccc(C(F)(F)F)cc3)cc12` [PPTN-NC] yielded a residual activity [1] of 100%, a residual activity [2] of 100% and a residual activity [3] of 100%. It also gave a residual activity [4] of 100%, a residual activity [5] of 100% and a residual activity [6] of 100%. It also gave a residual activity [7] of 100%, an inhibition [8] of 57.5% and a residual activity [9] of 100%. The residual activity [10] was 100%, the residual activity [11] was 97% and the residual activity [12] was 100%. It also gave a residual activity [13] of 100%, a residual activity [14] of 100% and a residual activity [15] of 100%. For the same compound, the residual activity [16] was 89%, the residual activity [17] was 100% and the residual activity [18] was 100%. For the same compound, the residual activity [19] was 93%, the inhibition [20] was 12.6% and the residual activity [21] was 100%. It also gave a residual activity [22] of 100%, a residual activity [23] of 76% and a residual activity [24] of 100%. For the same compound, the residual activity [25] was 100%, the residual activity [26] was 100% and the residual activity [27] was 93%. The residual activity [28] was 100%, the residual activity [29] was 100% and the residual activity [30] was 84%. For the same compound, the residual activity [31] was 84%, the residual activity [32] was 100% and the residual activity [33] was 100%. The residual activity [34] was 100%.

Work on `O=C(O)c1cc(-c2ccc(C3CCNCC3)cc2)c2ccc(-c3ccc(C(F)(F)F)cc3)cc2c1` [PPTN] yielded an inhibition [35] of -1%, an IC50 [36] of 9.02 µM and an inhibition [37] of -1%. The residual activity [1] was 100%, the residual activity [2] was 100% and the inhibition [38] was 41%. It also gave a residual activity [3] of 100%, an inhibition [39] of 29% and a residual activity [4] of 100%. The residual activity [5] was 100%, the residual activity [6] was 100% and the residual activity [7] was 100%. It also gave an inhibition [8] of 65.2%, a residual activity [9] of 100% and a residual activity [10] of 100%. The residual activity [11] was 82%, the residual activity [12] was 100% and the residual activity [13] was 100%. For the same compound, the residual activity [14] was 100%, the residual activity [15] was 100% and the inhibition [40] was 4%. For the same compound, the residual activity [16] was 100%, the inhibition [41] was 6% and the residual activity [17] was 100%. The residual activity [18] was 100%, the residual activity [19] was 100% and the inhibition [20] was 21.6%. For the same compound, the residual activity [21] was 100%, the residual activity [22] was 100% and the residual activity [23] was 87%. For the same compound, the residual activity [24] was 100%, the residual activity [25] was 100% and the inhibition (Homo sapiens) was 1%. The residual activity [26] was 100%, the residual activity [27] was 100% and the residual activity [28] was 100%. It also gave a residual activity [29] of 100%, an inhibition [42] of -7% and a residual activity [30] of 99%. The residual activity [31] was 83%, the IC50 [43] was 4.07 µM and the Ki [43] was 1.53 µM. It also gave a residual activity [32] of 100%, a residual activity [33] of 100% and a residual activity [34] of 96%.

— ChEMBL document CHEMBL4507292 (2021)
